Like-named read-outs stand apart in the source and are kept apart here.
Key:
[1] = test system: tetrabenazine-induced depression; assay: Antagonism (prevention) of tetrabenazine-induced sedation and depression in mice, orally; format: in vivo, mice (Carworth CF1 S female); conditions: tetrabenazine 32 mg/kg i.p. 30 min after compound; for ED50: Mus musculus, po, 1 h
From the text: A standard procedure for detecting and comparing the antidepressant activity of the compounds of this invention, for which there is good correlation with human efficacy, is the prevention of tetrabenazine-induced sedation and depression in mice. (Everett, "The Dopa Response Potentiation Test and Its Use in Screening for Antidepressant Drugs", pp. 164-167 in Antidepressant Drugs [Proceedings of the First International Symposium], S. Garattini and M. N. G. Dukes (editors), 1967).
Groups of 10 Carworth CF1 S female mice, 18-21 g each, each fasted 1.5 h and were intubated with antagonist compounds at oral doses, such as 0, 1, 3, 9, 27 and 81 mg/kg in 0.20 mL of 1% Methocel® (methylcellulose).The mice were challenged 30 minutes later with tetrabenazine (as the methanesulfonate), 32 mg/kg intraperitoneally (dissolved in 0.20 mL 0.05% aqueous KCl at pH 2.0). One hour after administration of antagonist (30 minutes after administration of tetrabenazine) the mice were examined for signs of exploratory activity and ptosis (eye lid closure). Normal exploratory activity (relief from sedation) was recorded when a mouse, lifted by the tail from a group of 10 in a testing box and placed on a stainless steel testing box lid (12.5 inch (31.8 cm) by 8 inch (20.3 cm) with 0.33 inch mesh), either turned its head horizontally 30° in both directions or moved to the edge of the screen within 10 seconds after being placed on the screen. Relief from ptosis was recorded when, at exactly two seconds after placing the mouse facing the observer, lid closure was less than 50% in both eyes.

[2] = Anorexia test from CNS screen (milk consumption in fasted mice); format: in vivo; conditions: fasted female mice, 0.5 h after dosing, 30 min milk access, ED50 estimated from quantal responses; for ED50: Mus musculus, po, 0.5 h
Procedure: Female mice weighing 16-20 grams and fasted overnight for 17-21 h are used in these studies. At 0.5 h after administration of graded oral doses of compound prepared in aqueous Methocel® (methylcellulose, viscosity 100 CPS, grade MC, Dow Chemical Co.) and 2.8% Tween 80 and dosed at 0.1 mL per 10 grams of body weight, each mouse is transferred to an individual, clear, Lucite® compartment (13.3 cm×12.7 cm×12.7 cm) with a 0.64 cm×0.64 cm wire mesh floor. Five compartments are linearly arranged in each cage unit. Inside each compartment is a section of a black Lucite® bar (13 cm×1.2 cm×1.2 cm), in the top of which are ten spot depressions (0.8 cm diameter), each containing 0.05 mL of 50% sweetened condensed milk (Borden's Eagle Brand). 30 Minutes later the mice are returned to the "shoe-box" containers and the number of milk spots consumed by each mouse is counted. Fractions of spots consumed are also estimated and counted. Five mice […] per drug dose can drink a maximum of 50 spots (2.5 mL of milk). Nine or fewer spots consumed by 5 mice is considered to indicate anorexia. ED50 values are estimated based on the quantal responses obtained.

[3] = test system: tetrabenazine-induced depression; assay: Antagonism (prevention) of tetrabenazine-induced sedation and depression in mice, orally; format: in vivo, mice (Carworth CF1 S female); conditions: Mus musculus, po, footnote *: peak time values
[4] = read-out: ORAL ED50 for prevention of exploratory loss, mice, oral, at one hour post-drug
[5] = read-out: ORAL ED50 for prevention of ptosis, mice, oral, at one hour post-drug
[6] = mice, oral, at one hour post-drug, 60 min

## CCC(C)(O)C1(c2cccc(OC)c2)CCN(C)CC1 (stereo not drawn) [Example 17, 4-(3'-Methoxyphenyl)-α,1-dimethyl-α-ethyl-4-piperidinemethanol]
[1]; [4]
  ED50: 0.1 mg/kg
[1]; [5]
  ED50: 0.11 mg/kg
[2]
  ED50: 60 mg/kg

## CCC(O)(CC)C1(c2cccc(Cl)c2)CCN(C)CC1 [Example 8, 4-(3'-Chlorophenyl)-α,α-diethyl-1-methyl-4-piperidinemethanol]
[1]; [4]
  ED50: 0.29 mg/kg
[1]; [5]
  ED50: 0.26 mg/kg
[2]
  ED50: 20 mg/kg

## CN1CCC(c2cccc(F)c2)(C(C)(C)O)CC1 [Example 4, 4-(3'-Fluorophenyl)-α,α,1-trimethyl-4-piperidinemethanol]
[1]; [4]
  ED50: 0.2 mg/kg
[1]; [5]
  ED50: 0.12 mg/kg
[2]
  ED50: 60 mg/kg

## CN1CCC(c2cccc(C(F)(F)F)c2)(C(C)(C)O)CC1 [Example 2, 4-(3'-Trifluoromethylphenyl)-α,α,1-trimethyl-4-piperidinemethanol]
[1]; [4]
  ED50: 0.01 mg/kg
[1]; [5]
  ED50: 0.016 mg/kg
[2]
  ED50: 60 mg/kg

## COc1cccc(C2(C(C)(C)O)CCN(C)CC2)c1 [Example 16, 4-(3'-Methoxyphenyl)-α,α,1-trimethyl-4-piperidinemethanol]
[2]
  ED50: 60 mg/kg
[3]; read-out: ORAL ED50 for prevention of exploratory loss (peak time value), mice, oral
  ED50: 0.12 mg/kg
[3]; read-out: ORAL ED50 for prevention of ptosis (peak time value), mice, oral
  ED50: 0.077 mg/kg

## CN1CCC(c2cccc(Cl)c2)(C(C)(C)O)CC1 [Example 6, 4-(3'-Chlorophenyl)-α,α,1-trimethyl-4-piperidinemethanol]
[1]; [4]
  ED50: 0.04 mg/kg
[1]; [5]
  ED50: 0.03 mg/kg
[2]
  ED50: 60 mg/kg

## CCC(C)(O)C1(c2cccc(C(F)(F)F)c2)CCN(C)CC1 (stereo not drawn) [Example 31, 4-(3'-Trifluoromethylphenyl)-α,1-dimethyl-α-ethyl-4-piperidinemethanol]
[1]; [4]
  ED50: 0.064 mg/kg
[1]; [5]
  ED50: 0.056 mg/kg
[2]
  ED50: 20 mg/kg

## CN1CCC(c2cccc(C(F)(F)F)c2)(C2(O)CCCC2)CC1 [Example 30, 1-[1'-Methyl-4'-(3"-trifluoromethylphenyl)-4'-piperidinyl]cyclopentanol]
[1]; [4]
  ED50: 0.17 mg/kg
[1]; [5]
  ED50: 0.084 mg/kg
[2]
  ED50: 60 mg/kg

## CN1CCC(c2ccc(Cl)cc2)(C(C)(C)O)CC1 [Example 7, 4-(4'-Chlorophenyl)-α,α,1-trimethyl-4-piperidinemethanol]
[1]; [4]
  ED50: 0.57 mg/kg
[1]; [5]
  ED50: 0.33 mg/kg
[2]
  ED50: 20 mg/kg

## COc1cccc(C2(C(C)(C)O)CCN(Cc3ccccc3)CC2)c1OC [Example 37, 4-(2',3'-Dimethoxyphenyl)-1-benzyl-α,α-dimethyl-4-piperidinemethanol]
[1]; [4]
  ED50: > 81 mg/kg
[1]; [5]
  ED50: 81 mg/kg
[2]
  ED50: 60 mg/kg

## Cc1cccc(C2(C(C)(C)O)CCN(C)CC2)c1 [Example 10, 4-(3'-Tolyl)-α,α,1-trimethyl-4-piperidinemethanol]
[1]; [4]
  ED50: 0.04 mg/kg
[1]; [5]
  ED50: 0.04 mg/kg
[2]
  ED50: 20 mg/kg

## CN1CCC(c2ccc(Oc3ccccc3)cc2)(C(C)(C)O)CC1 [Example 32, 4-(4'-Phenoxyphenyl)-α,α,1-trimethyl-4-piperidinemethanol]
[1]; [4]
  ED50: > 81 mg/kg
[1]; [5]
  ED50: 81 mg/kg
[2]
  ED50: 60 mg/kg

## CN1CCC(c2cccc(C(F)(F)F)c2)(C(C)(C)O)CC1 [Example 2A, 4-(3'-Trifluoromethylphenyl)-α,α,1-trimethyl-4-piperidinemethanol]
[1]; [6]
  ORAL ED50 for prevention of exploratory loss: 0.01 mg/kg
  ORAL ED50 for prevention of ptosis: 0.014 mg/kg
[2]; oral
  ED50 for anorexia: 36 mg/kg

## CCN1CCC(c2cccc(C(F)(F)F)c2)(C(C)(C)O)CC1 [Example 41, 4-(3'-Trifluoromethylphenyl)-α,α-dimethyl-1-ethyl-4-piperidinemethanol]
[1]; [4]
  ED50: 0.73 mg/kg
[1]; [5]
  ED50: 0.46 mg/kg
[2]
  ED50: 60 mg/kg

## COc1ccc2cc(C3(C(C)(C)O)CCN(C)CC3)ccc2c1 [Example 39, 4-(6'-Methoxy-2'-naphthyl)-α,α,1-trimethyl-4-piperidinemethanol]
[1]; [4]
  ED50: 0.33 mg/kg
[1]; [5]
  ED50: < 0.33 mg/kg
[2]
  ED50: 60 mg/kg

## Cc1ccc(C2(C(C)(C)O)CCN(C)CC2)cc1 [Example 11, 4-(4'-Tolyl)-α,α,1-trimethyl-4-piperidinemethanol]
[1]; [4]
  ED50: 0.69 mg/kg
[1]; [5]
  ED50: 0.57 mg/kg
